Test [1] has as its system NRAS mutant melanoma cells. The test is described as follows: Telomere length assay (TRF Southern blotting). The test is classed as cell-based, Human. The conditions noted are these: 1 μM 6-thio-dG for 14 days. Here is the method:
(§1) FIGS. 2a to 2c show NRAS^mut melanoma cells (FIG. 2a), BRAF-V600E/NRAS mutant cells derived from melanoma patients resistant to BRAF/MEK inhibitors (FIG. 2b), or non-transformed melanocytes and fibroblasts (FIG. 2c) were treated with 6-thio-dG for 7 days. Cell viability was measured by Alamar Blue assay and calculated relative to DMSO-treated cells. […] Cell death was assessed by PSVUe staining. Percent of apoptotic cells is shown. […] Mean TRF length expressed as kilobase pairs is indicated at the bottom. […] FIG. 2g provides a bar graph showing that DNA damage was assessed by γH2AX staining. Data represent average from three independent experiments ±SEM. *p<0.05; **p<0.01; ***p<0.005 in unpaired Student's t-test. As presented in FIG. 2h, mice bearing established WM3000 or M93-047 NRAS^mut tumors were treated with vehicle control or 6-thio-dG (2.5 mg/kg i.p; q.d). Tumor volume was measured and average tumor volume (n=4) ±SEM was plotted vs. time.
Genomic DNA was prepared using Wizard genomic DNA purification kit (Promega) following manufacturer's instruction. […] The images were analyzed with Phosphorimager, visualized by Typhoon 9410 Imager (GE Healthcare), and processed with ImageQuant 5.2 software (Molecular Dynamics).

Test [2] has as its system NRAS mutant tumors (WM3000, M93-047). The test is described as follows: NRAS mutant melanoma xenograft tumors in mice. The test is classed as in vivo. The conditions noted are these: for tumor growth: 6-Thio-dG 2.5 mg/kg i.p. q.d., single agent. Here is the method:
as §1
FIGS. 6a to 6e provide results showing that combining 6-thio-dG and Gamitrinib inhibits the growth of 3D melanoma spheroids and NRAS-mutant xenograft tumors. Collagen-embedded melanoma spheroids were treated with DMSO, 6-thio-dG (5 μM) and Gam (5 μM) as in FIGS. 4a to 4e. On day 7, spheroids were stained with Calcein AM (live cells; green) and EtBr (dead cells; red) and imaged using an inverted microscope (4X; scale bar=250 μm). […] P values were calculated using unpaired Student's t-test. *p<0.05, ** p<0.01, ***p<0.005, when comparing vehicle control vs. combination treatment groups. […] Kaplan Meier survival curves of mice treated for 14 days. p-values were calculated by Mantel-Cox log-rank test; *p<0.05, **p<0.01, ***p<0.005. Animal weight (grams) before treatment (Start of TX) and at the end of the study (End of TX) was assessed, recorded for every mouse enrolled in the study and plotted in FIG. 6e. […] Statistical significance was assessed by unpaired Student's t-test.
All animal experiments were performed in accordance with institutional guidelines. […] Tumor growth was measured twice weekly with digital calipers. […]

For test [3], the system named is KRAS mutant A549 cells. The test is described as follows: Cell death by Annexin V/PI flow cytometry. The test is classed as cell-based. The conditions noted are these: 1 μM 6-thio-dG, 5 μM Gam. Here is the method: (§2) FIGS. 5a to 5e provide bar graphs showing that combination treatment with 6-Thio-dG and Gamitrinib (Gam) triggers death selectively in NRAS mutant tumor cells. NRAS-WT/BRAF-WT melanoma cells (FIG. 5a), NRAS-WT/BRAF-mut melanoma cells (FIG. 5b), NRAS mutant neuroblastoma cells (FIG. 5c), NRAS-WT/KRAS-mutant colon cancer cells (FIG. 5d), and NRAS-WT/KRAS-mutant lung cancer cells were treated with 1 μM 6-thio-dG for 5 days (FIG. 5e). At day 5, culture medium was replaced and cells treated with 1 μM 6-thio-dG plus 5 μM Gam for two more days. Cells were stained with Annexin V and PI and percent cell death was determined by FACS. Data represent average of three independent experiments +/−SEM; p values were calculated using un-paired Student's t-test; *p<0.05; **p<0.001.
(§3) Cells were seeded in 96-well plates and treated with drugs. After 6 days, cell viability was assessed following 6h incubation with […] Alamar Blue (ThermoFisherScientific, Philadelphia, Pa.) by measuring fluorescence using an EnVision Xcite Multilabel plate reader (Perkin Elmer, Waltham, Mass.). Cell death was determined by flow cytometry using PSVue-643 (Molecular Targeting Technologies) or Annexin V (640919, Biolegend, San Diego, Calif.) and Propidium Iodide (Sigma) staining. Samples were analyzed using a BD LSRII flow cytometer (BD Biosciences, San Jose, Calif.).
In general terms: A flow cytometer gives signals particle by particle.

Test [4] concerns KRAS mutant HCT116 cells. The test is described as follows: Cell death by Annexin V/PI flow cytometry. The test is classed as cell-based. The conditions noted are these: 1 μM 6-thio-dG, 5 μM Gam. Here is the method:
as §2, §3

Test [5] deals with NRAS mutant SKNAS neuroblastoma cells. As to the kind of experiment: Cell death by Annexin V/PI flow cytometry. The test is classed as cell-based. The conditions noted are these: 1 μM 6-thio-dG, 5 μM Gam, single agents or in combination. How it is done:
as §2, §3

As to `Nc1nc2c(ncn2[C@H]2C[C@H](O)[C@@H](CO)O2)c(=S)[nH]1` [6-thio-dG, 6-thio-2′-deoxyguanosine], the “telomere length (mean TRF)” value in test [1] is “without evidence for significant telomere shortening”. The tumor growth entry in test [2] is “slowed, but did not completely abrogated tumor growth”; in test [2] (listed as 6-Thio-dG), “slowed the growth of tumors”. Also, in test [2] (6-Thio-dG 2.5 mg/kg, after 14 days of treatment), the “reduction in tumor volume” value is on record as “approximately 50%”. Further, the cell death result is “did not induce substantial death” in test [3], “did not induce substantial death” in test [4] and “triggered significant death” in test [5].
